{"source": "patent US8088806B2", "about": "(Achillion Pharmaceuticals, Inc., priority 2005, dated 2012)"}
{"test_system": "HCV replicon", "assay": "Replicon based assay of HCV replication inhibition (NPT ELISA)", "format": "cell-based, Hepatitis C virus", "settings": "Hepatitis C virus, replicon based assay of HCV replication inhibition; Table IV; read-out: Activity", "in_short": "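Huh-7 cells carrying a bicistronic HCV replicon (neo, EMCV-IRES-driven NS3–NS5B) treated overnight after seeding with usually 6 concentrations, 10 to 0.03 micromolar, for three days at 37° C without G418. Replication read as NPT level by captured ELISA; matched-DMSO wells and interferon alpha as controls.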", "units": {"EC50": "nM"}}
{"smiles": "CC(C)CCCOc1ccc(Nc2nc(-c3cccnc3)cs2)cc1C(F)(F)F", "note": "[compound 824, N-(4-(4-methylpentyloxy)-3-(trifluoromethyl)phenyl)-4-(pyridin-3-yl)thiazol-2-amine]", "EC50": "< 1000"}
{"smiles": "CCCCCCCCc1ccc(Nc2nc(-c3cccnc3)cs2)cc1C(F)(F)F", "note": "[compound 825, N-(3-(trifluoromethyl)-4-octylphenyl)-4-(pyridin-3-yl)thiazol-2-amine]", "EC50": "< 1000"}
{"smiles": "CCCCCCCCc1ccc(Nc2nc(-c3cnc(OC)nc3)cs2)cc1C(F)(F)F", "note": "[compound 826, N-(3-(trifluoromethyl)-4-octylphenyl)-4-(2-methoxypyrimidin-5-yl)thiazol-2-amine]", "EC50": "< 1000"}
{"smiles": "CC(C)=CCC/C(C)=C/COc1ccc(Nc2nc(-c3ccc(F)cc3)cs2)cc1C(F)(F)F", "note": "[compound 827, N-(4-((E)-3,7-dimethylocta-2,6-dienyloxy)-3-(trifluoromethyl)phenyl)-4-(4-fluorophenyl)thiazol-2-amine]", "EC50": "> 10000"}
{"smiles": "COc1ncc(-c2csc(Nc3ccc(OCCCCc4ccccc4)c(C(F)(F)F)c3)n2)cn1", "note": "[compound 828, N-(4-(4-phenylbutoxy)-3-(trifluoromethyl)phenyl)-4-(2-methoxypyrimidin-5-yl)thiazol-2-amine]", "EC50": "< 1000"}
{"smiles": "COc1ncc(-c2csc(Nc3ccc(OCCCCc4ccc(C)cc4)c(C(F)(F)F)c3)n2)cn1", "note": "[compound 829, N-(4-(4-p-tolylbutoxy)-3-(trifluoromethyl)phenyl)-4-(2-methoxypyrimidin-5-yl)thiazol-2-amine]", "EC50": "< 1000"}
{"smiles": "COc1ncc(-c2csc(Nc3ccc(OCCCc4cccnc4)c(C(F)(F)F)c3)n2)cn1", "note": "[compound 830, N-(4-(3-(pyridin-3-yl)propoxy)-3-(trifluoromethyl)phenyl)-4-(2-methoxypyrimidin-5-yl)thiazol-2-amine]", "EC50": "1000 to 10000"}
{"smiles": "COc1ncc(-c2csc(Nc3ccc(OCCCc4ccccc4)c(C(F)(F)F)c3)n2)cn1", "note": "[compound 831, N-(4-(3-phenylpropoxy)-3-(trifluoromethyl)phenyl)-4-(2-methoxypyrimidin-5-yl)thiazol-2-amine]", "EC50": "< 1000"}
{"smiles": "CCCCCOc1ccc2nc(NC(=O)c3cccnc3)sc2c1", "note": "[compound 832, N-(6-(pentyloxy)benzo[d]thiazol-2-yl)nicotinamide]", "EC50": "> 10000"}
{"smiles": "CCCCCCCN(C)Cc1ccc(Nc2nc(-c3cccnc3)cs2)cc1C(F)(F)F", "note": "[compound 833, N-(4-((heptyl(methyl)amino)methyl)-3-(trifluoromethyl)phenyl)-4-(pyridin-3-yl)thiazol-2-amine]", "EC50": "< 1000"}
{"smiles": "c1cncc(-c2csc(Nc3nc(CN4CCCCC4)cs3)n2)c1", "note": "[compound 834, 4-((piperidin-1-yl)methyl)-N-(4-(pyridin-3-yl)thiazol-2-yl)thiazol-2-amine]", "EC50": "> 10000"}
{"smiles": "CCCCCCCCOc1ccc(Nc2nc(-c3cccnc3)c(C)s2)cc1C(F)(F)F", "note": "[compound 836, N-(3-(trifluoromethyl)-4-(octyloxy)phenyl)-5-methyl-4-(pyridin-3-yl)thiazol-2-amine]", "EC50": "< 1000"}
{"smiles": "Cc1sc(Nc2ccc(OCCCC3CCCC3)c(C(F)(F)F)c2)nc1-c1cccnc1", "note": "[compound 837, N-(4-(3-cyclopentylpropoxy)-3-(trifluoromethyl)phenyl)-5-methyl-4-(pyridin-3-yl)thiazol-2-amine]", "EC50": "< 1000"}
{"smiles": "Cc1sc(Nc2ccc(OCCCCc3ccccc3)c(C(F)(F)F)c2)nc1-c1cccnc1", "note": "[compound 838, N-(4-(4-phenylbutoxy)-3-(trifluoromethyl)phenyl)-5-methyl-4-(pyridin-3-yl)thiazol-2-amine]", "EC50": "< 1000"}
{"smiles": "Cc1sc(Nc2ccc(OCCCc3ccccc3)c(C(F)(F)F)c2)nc1-c1cccnc1", "note": "[compound 839, N-(4-(3-phenylpropoxy)-3-(trifluoromethyl)phenyl)-5-methyl-4-(pyridin-3-yl)thiazo1-2-amine]", "EC50": "< 1000"}
{"smiles": "CCCCCCCCOc1ccc(Nc2nc(-c3cnc(O)nc3)cs2)cc1C(F)(F)F", "note": "[compound 840, 5-(2-(3-(trifluoromethyl)-4-(octyloxy)phenylamino)thiazol-4-yl)pyrimidin-2-ol]", "EC50": "< 1000"}
{"smiles": "CCCCCCCCOc1ccc(Nc2nc(-c3ccc(OC)nn3)cs2)cc1C(F)(F)F", "note": "[compound 841, N-(3-(trifluoromethyl)-4-(octyloxy)phenyl)-4-(6-methoxypyridazin-3-yl)thiazol-2-amine]", "EC50": "< 1000"}
{"smiles": "CCCCCCCCOc1ccc(Nc2nc(-c3cnc(Cl)c(C)c3)cs2)cc1C(F)(F)F", "note": "[compound 842, 4-(6-chloro-5-methylpyridin-3-yl)-N-(3-(trifluoromethyl)-4-(octyloxy)phenyl)thiazol-2-amine]", "EC50": "< 1000"}
{"smiles": "CCCCCCCCOc1ccc(Nc2nc(-c3ccc(CNC(=O)OC(C)(C)C)nc3)cs2)cc1C(F)(F)F", "note": "[compound 843, tert-butyl (5-(2-(3-(trifluoromethyl)-4-(octyloxy)phenylamino)thiazol-4-yl)pyridin-2-yl)methylcarbamate]", "EC50": "< 1000"}
{"smiles": "CCCCCCCCOc1ccc(Nc2nc(-c3ccc(CN)nc3)cs2)cc1C(F)(F)F", "note": "[compound 844, 4-(6-(aminomethyl)pyridin-3-yl)-N-(3-(trifluoromethyl)-4-(octyloxy)phenyl)thiazol-2-amine]", "EC50": "< 1000"}
{"smiles": "Cc1ccc(CCCCOc2ccc(Nc3nc(-c4cccnc4)c(C)s3)cc2C(F)(F)F)cc1", "note": "[compound 845, N-(4-(4-p-tolylbutoxy)-3-(trifluoromethyl)phenyl)-5-methyl-4-(pyridin-3-yl)thiazol-2-amine]", "EC50": "< 1000"}
{"smiles": "Cc1sc(Nc2ccc(OCCCc3cccnc3)c(C(F)(F)F)c2)nc1-c1cccnc1", "note": "[compound 846, N-(4-(3-(pyridin-3-yl)propoxy)-3-(trifluoromethyl)phenyl)-5-methyl-4-(pyridin-3-yl)thiazol-2-amine]", "EC50": "> 10000"}
{"smiles": "CCN(CCOc1ccc(Nc2nc(-c3cccnc3)cs2)cc1C(F)(F)F)c1ccccc1", "note": "[compound 847]", "EC50": "< 1000"}
{"smiles": "FC(F)(F)c1cc(Nc2nc(-c3cccnc3)cs2)ccc1OCCOc1ccccc1", "note": "[compound 848, N-(4-(2-phenoxyethoxy)-3-(trifluoromethyl)phenyl)-4-(pyridin-3-yl)thiazol-2-amine]", "EC50": "< 1000"}
{"smiles": "CCCCCCCCOc1ccc(Nc2nc(-c3ccc(CC(=O)O)s3)cs2)cc1C(F)(F)F", "note": "[compound 849, 2-(5-(2-(3-(trifluoromethyl)-4-(octyloxy)phenylamino)thiazol-4-yl)thiophen-2-yl)acetic acid]", "EC50": "< 1000"}
{"smiles": "O=C(O)Cc1ccc(-c2csc(Nc3ccc(OCCCC4CCCC4)c(C(F)(F)F)c3)n2)s1", "note": "[compound 850, 2-(5-(2-(4-(3-cyclopentylpropoxy)-3-(trifluoromethyl)phenylamino)thiazol-4-yl)thiophen-2-yl)acetic acid]", "EC50": "< 1000"}
{"smiles": "Cc1ccc(CCCCOc2ccc(Nc3nc(-c4ccc(CC(=O)O)s4)cs3)cc2C(F)(F)F)cc1", "note": "[compound 851, 2-(5-(2-(4-(4-p-tolylbutoxy)-3-(trifluoromethyl)phenylamino)thiazol-4-yl)thiophen-2-yl)acetic acid]", "EC50": "< 1000"}
{"smiles": "Fc1cc(Nc2nc(-c3cccnc3)cs2)ccc1OCCCCc1cccs1", "note": "[compound 852, N-(4-(4-(thiophen-2-yl)butoxy)-3-fluorophenyl)-4-(pyridin-3-yl)thiazol-2-amine]", "EC50": "< 1000"}
{"smiles": "Fc1cc(Nc2nc(-c3cccnc3)cs2)ccc1OCCCc1ccccc1", "note": "[compound 853, N-(4-(3-phenylpropoxy)-3-fluorophenyl)-4-(pyridin-3-yl)thiazol-2-amine]", "EC50": "< 1000"}
